Tested on: E. coli HB101/pPAP5 (agglutination of human erythrocytes)
Assay: Inhibition of haemagglutination (HA inhibition) of human erythrocytes by E. coli
Type: cell-based
Conditions: for IC50: Escherichia coli, Erythrocyte; for ΔΔG^o: ΔΔG°=RTlnKrel, Krel = IC50 ratio to compound 1
Excerpt: Bacterial strain HB101/pPAPS. Plasmid pPAP5 carries the pap gene cluster isolated from the uropathogenic E.coli isolate J96. The clone produces P pill that mediate agglutination of human erythrocytes by binding to the galabiose-containing P-blood group antigens present on the erythrocyte surface. The galabiose binding property resides in the PapG gene product which is present at the tip of the P pilus as a minor component.
HA of a 1% human P erythrocyte suspension in phosphate-buffered saline was determined for agar-grown organisms by suspending the bacteria to a Klett of 490 (ca 1×10^9 bacteria/mL). A sample of the bacterial suspension (25 μL) was serially diluted in microtiter plates containing 25 μL PBS in each well. An equal volume of erythrocyte suspension was added and after mixing, the plates were incubated at 4° C. for 18 h. The HA endpoint was defined as the dilution in the last well before erythrocyte buttons were formed. The titer was expressed as the reciprocal of the endpoint dilution.
The HA titer of the strains to be tested was determined as described above and the cells were diluted so that each strain gave a titer of 64. The concentration of each of the analogues 1-25 was adjusted to 100 mM and 25 μL of each analogue was serially diluted in microtiter plates containing 25 μL of PBS in each well. The bacterial suspension (25 μL; HA titer=64) was then added to each well. After incubation for 30 min at room temperature, human erythrocytes (1% suspension) were added by gentle mixing and the plates were incubated at 4° C. overnight. The endpoint was defined as the greatest dilution of the analogue (minimal concentration) that gave a 50% inhibition of the HA (IC50).
The IC50 -values given in the tables are mean values from 3 consecutive runs. The ratio of the IC50 -value for an inhibitor and compound 1 is the relative equilibrium constant, Krel. This value was used for the calculation of the difference free energy values (ΔΔG°) using the expression ΔΔG°=RTlnKrel. It should be stressed that the conclusions made here about the nature of the adhesin receptor is based on the assumption that all the inhibitors have similar over-all confirmations oriented in a similar way in the receptor side and that only one type of galablest-specific receptor is present in the adhesin.

[1] = Table 1, inhibition of agglutination of human erythrocytes by E. coli, mean of 3 consecutive runs
[2] = Table 2, footnote a: separate inhibition experiment where reference compound 1 showed IC50 = 0.0434 mM
[3] = Table 2, glycoside analogs, inhibition of agglutination of human erythrocytes by E. coli, mean of 3 runs
[4] = Table 2, relative to compound 1 (IC50 0.20 mM)
[5] = Table 2, footnote a: separate experiment, relative to compound 1 IC50 = 0.0434 mM

Structure (SMILES) | IC50 [1] [µM] | Relative potency (%) (Table 1, in relation to compound 1, calculated from IC50) | ΔΔG^o (Table 1) [kcal/mol] | IC50 [2] [µM] | IC50 [3] [µM] | ΔΔG (kJmol^-1) [4] [kJmol^-1] | Inhib. power (%) [5] [%] | ΔΔG (kJmol^-1) [5] [kJmol^-1] | Inhib. power (%) (Table 2, in relation to compound 1 (IC50 0.20 mM))
CO[C@@H]1O[C@H](CO)[C@H](O[C@@H]2C[C@@H](O)[C@@H](O)[C@@H](CO)O2)[C@H](O)[C@H]1O [Compound 5] | 2600 | 7.6 | 1.43 |  |  |  |  |  | 
CO[C@@H]1O[C@H](CO)[C@H](O[C@H]2O[C@H](CO)[C@H](O)[C@H](O)[C@H]2O)[C@H](O)[C@H]1O [Compound 1, Galα1-4GalβOMe, reference compound] | 200 |  | 0 | 43.4 | 200 | 0.00 |  |  | 
CCCCS(=O)(=O)CC(CO[C@@H]1O[C@H](CO)[C@H](O[C@H]2O[C@H](CO)[C@H](O)[C@H](O)[C@H]2O)[C@H](O)[C@H]1O)CS(=O)(=O)CCCC [Compound 27, 3-Butylsulfonyl-2-butylsulfonylmethylpropyl 4-O-α-D-galactopyranosyl-β-D-galactopyranoside] |  |  |  | 2.3 |  |  | 1887 | -6.8 | 
CO[C@H]1O[C@H](CO)[C@H](O[C@H]2O[C@H](CO)[C@H](O)[C@H](O)[C@H]2O)[C@H](O)[C@H]1O [Compound 23] |  |  |  |  | 2100 | 5.6 |  |  | 9.0

Reference: patent US5474986A, “Method for treating galabiose-binding bacteria infections” (priority 1988, dated 1995)
